According to patent US4863941A, “Glycerol derivatives” (Hoffmann-La Roche Inc., priority 1985, dated 1989):

The compounds below were run on aggregation of the blood platelets brought about by PAF (assay: inhibition of PAF-triggered platelet aggregation in platelet-rich plasma (PRP), aggregometer). Conditions: Oryctolagus cuniculus, rabbit PRP, 37° C., sub-maximum dosage of PAF (4 nM), test substance added 2 minutes before PAF.
Assay type: cell-based
Method: Platelet-rich plasma (PRP) is prepared by centrifugation of rabbit blood containing 1/10 volumes of 90 mM trisodium citrate. The aggregation of the blood platelets is measured with the aid of an aggregometer at 37° C. while stirring. 2 minutes after the addition of the test sub- stance to the PRP the platelet aggregation is triggered off by a sub-maximum dosage of PAF (4 nM). The IC50 value (μM) given in the following Table corresponds to that concentration of the test substance which reduces to a half the aggregation of the blood platelets brought about by PAF.

**Q.** With `CCCCCCCCCCCCCCCCCCNC(=O)N(CC(COCCCCn1cc[n+](C)c1)OC(=O)NC)C(C)C` (racemic) [Example 8, 1-[4-[(RS)-3-(1-isopropyl-3-octadecylureido)-2-[(methylcarbamoyl)oxy]propoxy]butyl]-3-methylimidazolium bromide] as the compound, how does the IC50 read?
**A.** 400 nM

**Q.** Which IC50 does the source give for `CCCCCCCCCCCCCCCCCCNC(=O)OCC(COC(=O)CCC[N+](C)(C)C)NC(=O)OC` (racemic) [Example 2, [3-[[(RS)-2-(1-methoxyformamido)-3-(octadecylcarbamoyloxy)propoxy]carbonyl]propyl]trimethylammonium chloride] here?
**A.** 1800 nM

**Q.** How did the IC50 turn out when `CCCCCCCCCCCCCCCCCCOC(=O)N(CC(COCCCC[n+]1ccsc1)OC(=O)NC)C(C)C` (racemic) [Example 5, 3-[4-[(RS)-3-[N-isopropyl-1-(octadecyloxy)formamido]-2-[(methylcarbamoyl)oxy]-propoxy]butyl]thiazolium bromide] was run?
**A.** 40 nM

**Q.** With `CCCCCCCCCCCCCCCCCCOC(=O)N(CC(COCCCC[n+]1ccsc1)OC(=O)OC)C(C)C` (racemic) [Example 9, 3-[4-(RS)-3-(N-isopropyl-1-octadecyloxyformamido)-2-(methoxycarbonyloxy)propoxy]butyl]thiazolium bromide] as the compound, how does the IC50 read?
**A.** 60 nM

**Q.** How did the IC50 turn out when `CCCCCCCCCCCCCCCCCCOCC(COC(=O)OCC[N+]1(C)CCCCC1)OC` (racemic) [Example 3, 1-[2-[[[(RS)-2-methoxy-3-(octadecyloxy)propoxy]carbonyl]oxy]ethyl]-1-methylpiperidinium chloride] was run?
**A.** 4000 nM

**Q.** Which IC50 does the source give for `CCCCCCCCCCCCCCCCCCNC(=O)N(CC(COCCCC[n+]1ccsc1)OC(=O)NC)C(C)C` (racemic) [Example 7, 3-[4-[(RS)-3-(1-isopropyl-3-octadecylureido)-2-[(methylcarbamoyl)oxy]propoxy]butyl]thiazolium bromide] here?
**A.** 50 nM

**Q.** With `CCCCCCCCCCCCCCCCCCOC(=O)N(CC(COCCCC[N+](C)(C)C)OC(=O)NC)C(C)C` (racemic) [Example 6, [4-[(RS)-3-[N-isopropyl(1-octadecyloxy)formamido]-2-[(methylcarbamoyl)oxy]propoxy]butyl]trimethylammonium bromide] as the compound, how does the IC50 read?
**A.** 500 nM

**Q.** For `CCCCCCCCCCCCCCCCCC(=O)OCC(COC(=O)CCC[N+](C)(C)C)NC(C)=O` (racemic) [Example 1, [3-[[(RS)-2-acetamido-3-[octadecanoyloxy]propoxy]carbonyl]propyl]trimethylammonium chloride], which IC50 is on record?
**A.** 5500 nM

**Q.** For `CCCCCCCCCCCCCCCCCCOC(=O)NCC(COC(=O)CCC[N+](C)(C)C)OC(=O)NC` (racemic) [Example 4, [3-[[(RS)-2-Methylcarbamoyloxy-3-[1-(octadecyloxy)formamido]propoxy]carbonyl]propyl]trimethylammonium chloride], which IC50 is on record?
**A.** 1800 nM
